Test results as given in patent US20250171432A1, “COMPOUNDS AND METHODS OF USE” (Tango Therapeutics, Inc., priority 2022, published 2025).
Read-outs that look alike come from different tables or passages of the source.

How the values were obtained:
Assay type in all cases: cell-based
[1] = system: SDMA (PRMT5 activity) in HAP1 MTAP-deleted cell line; assay: SDMA in-cell western assay, HAP1 MTAP-deleted
[2] = system: HAP1 MTAP-deleted cell line; assay: Viability assay (CellTiter-Glo), HAP1 MTAP-deleted; settings: Homo sapiens, 168 h, HAP1 MTAP-deleted cells, 7 days
Method in brief: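 HAP1 MTAP-deleted and MTAP-intact cells seeded, then dosed next day (n=3, 0.2% DMSO) and grown 7 days. Viability by CellTiter-Glo luminescence, expressed as % of DMSO control per cell line.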

[3] = system: SDMA (PRMT5 activity) in HAP1 MTAP-intact cell line; assay: SDMA in-cell western assay, HAP1 MTAP-intact
[4] = Homo sapiens, SDMA in-cell western, HAP1 MTAP-deleted cells, 24 hours compound incubation
[5] = ratio of SDMA IC50 in HAP1 MTAP-intact to HAP1 MTAP-deleted cell line
[6] = Homo sapiens, SDMA in-cell western, HAP1 MTAP-intact cells, 24 hours compound incubation
[7] = Homo sapiens, HAP1, 24 h, SDMA in-cell western, HAP1 MTAP-intact cells, 24 hours compound incubation

SMILES | IC50 [1, 4] | IC90 [1, 4] | Hap1 MTAP intact/deleted ratio [1, 5] | IC50 [2] | IC50 [3, 6] | IC50 [3, 7] | Hap1 MTAP intact/deleted ratio [1] | IC50 [1] | IC90 [1] | IC50 [3]
C[C@H]1CC[C@H](c2ccc3scnc3c2)N(C(=O)C(=O)Nc2cnc(N)c(I)c2)C1 [Compound 51, N-(6-amino-5-iodopyridin-3-yl)-2-((2R,5S)-2-(benzo[d]thiazol-5-yl)-5-methylpiperidin-1-yl)-2-oxoacetamide] | < 0.005 µM | 0.075 to 0.125 µM | A (“A” indicates an IC50 ratio greater than or equal to 30 fold) | 0.1 to 1 µM | > 0.05 µM | – | – | – | – | –
COc1ncc(NC(=O)C(=O)N2C[C@@H](C)CC[C@@H]2c2ccc3sc(C4CCNCC4)nc3c2)cc1C(N)=O [Compound 52, 2-methoxy-5-(2-((2R,5S)-5-methyl-2-(2-(piperidin-4-yl)benzo[d]thiazol-5-yl)piperidin-1-yl)-2-oxoacetamido)nicotinamide] | 0.005 to 0.05 µM | 0.075 to 0.125 µM | B (“B” indicates an IC50 ratio greater than or equal to 15 fold but lower than 30 fold) | 0.1 to 1 µM | – | > 0.05 µM | – | – | – | –
CCc1cc(NC(=O)C(=O)N2C[C@@H](C)CC[C@@H]2c2ccc3oc(C4CCN(C)CC4)nc3c2)cnc1N [Compound 53, N-(6-amino-5-ethylpyridin-3-yl)-2-((2R,5S)-5-methyl-2-(2-(1-methylpiperidin-4-yl)benzo[d]oxazol-5-yl)piperidin-1-yl)-2-oxoacetamide] | < 0.005 µM | < 0.075 µM | A (“A” indicates an IC50 ratio greater than or equal to 30 fold) | < 0.1 µM | > 0.05 µM | – | – | – | – | –
CCc1cc(NC(=O)C(=O)N2C[C@@H](C)CC[C@@H]2c2ccc3cc(C#N)cnc3c2)cnc1N [Compound 54] | 0.005 to 0.05 µM | > 0.125 µM | A (“A” indicates an IC50 ratio greater than or equal to 30 fold) | 0.1 to 1 µM | – | > 0.05 µM | – | – | – | –
CCc1cc(NC(=O)C(=O)N2C[C@@H](C)CC[C@@H]2c2ccc3sc(C[C@H](C)N(C)C)nc3c2)cnc1N [Compound 55, N-(6-amino-5-ethylpyridin-3-yl)-2-((2R,5S)-2-(2-((S)-2-(dimethylamino)propyl)benzo[d]thiazol-5-yl)-5-methylpiperidin-1-yl)-2-oxoacetamide] | < 0.005 µM | < 0.075 µM | B (“B” indicates an IC50 ratio greater than or equal to 15 fold but lower than 30 fold) | < 0.1 µM | – | 0.005 to 0.05 µM | – | – | – | –
CCc1cc(NC(=O)C(=O)N2C[C@@H](C)CC[C@@H]2c2cccc(OC3CCN(C)CC3)c2)cnc1N [Compound 58, N-(6-amino-5-ethylpyridin-3-yl)-2-((2R,5S)-5-methyl-2-(3-((1-methylpiperidin-4-yl)oxy)phenyl)piperidin-1-yl)-2-oxoacetamide] | < 0.005 µM | < 0.075 µM | A (“A” indicates an IC50 ratio greater than or equal to 30 fold) | < 0.1 µM | – | > 0.05 µM | – | – | – | –
Cc1cc2cc(C(=O)N3C[C@@H](C)CC[C@@H]3c3ccc4sc(C5CCN(C)CC5)nc4c3)ccc2nc1N [Compound 59, (2-amino-3-methylquinolin-6-yl)((2R,5S)-5-methyl-2-(2-(1-methylpiperidin-4-yl)benzo[d]thiazol-5-yl)piperidin-1-yl)methanone] | – | – | – | < 0.1 µM | – | – | A (key: “A” indicates an IC50 ratio greater than or equal to 30 fold; “B” indicates an IC50 ratio greater than or equal to 15 fold but lower than 30 fold; “C” indicates an IC50 ratio of less than 15 fold) | < 0.005 µM | < 0.075 µM | > 0.05 µM
COc1ncc(NC(=O)C(=O)N2C[C@@H](C)CC[C@@H]2c2ccc3sc(C4=C(C)CN(C)CC4)nc3c2)cc1C(N)=O [Compound 61, 5-(2-((2R,5S)-2-(2-(1,5-dimethyl-1,2,3,6-tetrahydropyridin-4-yl)benzo[d]thiazol-5-yl)-5-methylpiperidin-1-yl)-2-oxoacetamido)-2-methoxynicotinamide] | < 0.005 µM | < 0.075 µM | A (“A” indicates an IC50 ratio greater than or equal to 30 fold) | < 0.1 µM | > 0.05 µM | – | – | – | – | –
